Literature values, collected in US20200129574A1 (priority 2018, published 2020).

Columns and labels:
prostate cancer cells = settings: in vitro
[1] = system: several tumor cell types, including prostate cancer cell lines, and primary prostate tumor lines; settings: several tumor cell types incl. prostate cancer cell lines and primary prostate tumor lines

Substance: Vitamin D
- effect on invasion of prostate cancer cells (prostate cancer cells): decrease invasion
- expression of a6 and 134 integrins (a6 and 134 integrins): decreased expression
- effect on proliferation and differentiation of tumor cells [1]: inhibit proliferation and promote differentiation
